In patent publication US6248744A, “Method for the treatment of pain, including chronic and female specific pain” (priority 2000, dated 2001):

What was measured:
rats and mice = conditions: cited from earlier work
[1] = system: ganglionic nicotinic receptors; conditions: agonist of ganglionic nicotinic receptors; cited from earlier work
[2] = system: central nicotinic receptor subtypes; conditions: cited from earlier work
animal studies = conditions: cited from earlier work
[3] = system: male and female Sprague Dawley rats; assay: Latency to hindpaw withdrawal from a focused light heat source after intrathecal injection; format: in vivo, rat; conditions: for maximum possible analgesic effect: radiant heat paw withdrawal
Protocol: Trans-metanicotine was administered via intrathecal catheters inserted in male and female Sprague Dawley rats such that their tips were in the upper lumbar region. Analgesia was determined as an increase in the latency to withdrawal of the hindpaw from a focused light heat source. To prevent injury, duration of 30 seconds was not exceeded. The latency to paw withdrawal was determined both before and after intrathecal injection of trans-metanicotine in these rats, and the data were expressed as % maximum possible effect.

[4] = system: male and female Sprague Dawley rats; assay: Intraplantar capsaicin mechanical hyperalgesia, hindpaw withdrawal threshold with von Frey filaments, intrathecal injection; format: in vivo, rat; conditions: for average % reduction in withdrawal threshold over the 2 hours after capsaicin injection: % change from pre-capsaicin threshold, capsaicin 30 μg intraplantar, 50 μg i.t.
Protocol: Adult male and female Sprague Dawley rats were prepared with insertion of intrathecal catheters as described above. Capsaicin (8-methyl-N-vanillyl nonamide) was prepared in a concentration of 30 μg in 10 μl. Briefly, capsaicin powder was first dissolved in Tween 80, then in isotonic saline and heated to 70° C. The solution obtained was filtered and stored in sterile glass vials. Each group of rats represents 6 males and 6 females tested at the same time and each animal received only one injection in the left plantar surface of the hindpaw. Each animal was lightly anesthetized under halothane and immediately after immobility, received intradermal capsaicin, 30 μg injected through a 28 G needle, in the center of the plantar surface. This dose was chosen because it produces mechanical hyperalgesia lasting at least 2 hours (Gilchrist, H. D., Allard, B. L., and Simone, D. A. Enhanced withdrawal responses to heat and mechanical stimuli following intraplantar injection of capsaicin in rats. Pain 1996;67: 179-188).
Hindpaw withdrawal thresholds were tested before capsaicin injection and every 30 minutes thereafter for 2 hours, using von Frey filaments and the up-down method described above. Care was taken to avoid direct contact of the injection point when measuring withdrawal threshold with the filaments. Intrathecal saline, or (E)-N-methyl-4-(3-pyridinyl)-3-butene-1-amine(50 μg) was injected prior to capsaicin.
Intraplantar injection of capsaicin produced a rapid onset, sustained reduction in withdrawal threshold in both sexes. However, male and female control animals differed in withdrawal threshold at baseline and after capsaicin, and the sexes were therefore compared by % change from pre-capsaicin threshold. By this analysis, the average % reduction in withdrawal threshold over the 2 hours after capsaicin injection was 74+/-5.3% in females and 64+/-6.7% in males (p=0.47, NS).

neuropathic rat hindlimb = assay: Neuropathic pain model (injury of spinal nerves L5 and L6), allodynia measured with von Frey filaments, intrathecal injection; format: in vivo; conditions: one week after nerve injury
Description: Analgesic potency of compounds of the present invention can also be tested in animal models of neuropathic or neurogenic pain. One such model resembles the human condition termed causalgia or reflex sympathetic dystrophy (RSD) secondary to injury of a peripheral nerve. This condition is characterized by hyperesthesia (enhanced sensitivity to a natural stimulus), hyperalgesia (abnormal sensitivity to pain), allodynia (hypersensitivity and pain to normally non-painful stimuli, either thermal or tactile), and spontaneous burning pain. In humans, neuropathic pain tends to be chronic and may be debilitating.
Briefly, in the model used, rats are subjected to a surgical procedure, described by Kim et al. (Kim, S. H. and Chung, J. M. (1992) Pain 50:355-363), designed to reproducibly injure peripheral nerves (spinal nerves L5 and L6). These rats develop a hyperesthetic state, which can be measured, using one or more paradigms known in the art. Here, allodynia was measured by stimulation of neuropathic rat hindlimb using nylon filaments having graded degrees of stiffness.
Sex differences in response to (E)-N-methyl-4-(3-pyridinyl)-3-butene-1-amine were tested using the assay described above. Hypersensitivity to light touch (withdrawal threshold to application of calibrated von Frey filaments) was documented one week later. […]

## Clc1ccc(C2CC3CCC2N3)cn1 (stereo not drawn) [Epibatidine]
Rats and mice
  analgesic potency relative to morphine: three orders of magnitude higher than morphine
[1]
  cardiorespiratory effects: cardiorespiratory effects similar to those of nicotine

## CNCC/C=C/c1cccnc1 [Metanicotine]
[2]
  selectivity for central nicotinic receptor subtypes compared to peripheral ganglionic and muscular nicotinic receptors: high selectivity
Animal studies
  antinociceptive effect: dose dependent antinociceptive effect

## CNCC/C=C/c1cccnc1 [trans-metanicotine, (E)-N-methyl-4-(3-pyridinyl)-3-butene-1-amine]
[3]; female rats, i.t. injection
  maximum possible analgesic effect: 45%
[3]; i.t. injection, females vs males
  antinociceptive response in females relative to males: twice as great
[3]; male and female rats, i.t. injection
  duration of the antinociceptive response: about 10 minutes
[3]; male and female rats, i.t., 60 μg
  effect at 60 μg compared with 20 μg (ceiling effect): failed to be more effective
[3]; male and female rats, i.t., up to a dose of 20 μg
  dose dependence of the effect on paw withdrawal latency to a radiant heat stimulus: dose dependent inhibition of paw withdrawal latency
[3]; male rats, i.t. injection
  maximum possible analgesic effect: 20%
[4]; female rats
  average % reduction in withdrawal threshold over the 2 hours after capsaicin injection: 74+/-5.3%
[4]; male and female rats, 50 μg i.t. prior to capsaicin
  analgesia in the capsaicin model, comparison of the sexes: produced analgesia in this model of pain which was similar between the sexes
[4]; male rats
  average % reduction in withdrawal threshold over the 2 hours after capsaicin injection: 64+/-6.7%
Neuropathic rat hindlimb; female rats, intrathecal, 100 μg
  return of the level of sensitivity to presurgery levels (mean ±SEM): 50±4%
Neuropathic rat hindlimb; male rats, intrathecal injection
  effect on hypersensitivity to light touch (von Frey withdrawal threshold): no effect
